Here are results for three molecules from patent publication US9839627B2, “Methods of treating fragile X associated disorders, ADHD, and autism spectrum disorder” (Neurovance, Inc., priority 2013, dated 2017).

Data set [1] has as its target T1, monoamine oxidase A (MAO A) (Homo sapiens, UniProt P21397).
T1 sequence (P21397 1-527): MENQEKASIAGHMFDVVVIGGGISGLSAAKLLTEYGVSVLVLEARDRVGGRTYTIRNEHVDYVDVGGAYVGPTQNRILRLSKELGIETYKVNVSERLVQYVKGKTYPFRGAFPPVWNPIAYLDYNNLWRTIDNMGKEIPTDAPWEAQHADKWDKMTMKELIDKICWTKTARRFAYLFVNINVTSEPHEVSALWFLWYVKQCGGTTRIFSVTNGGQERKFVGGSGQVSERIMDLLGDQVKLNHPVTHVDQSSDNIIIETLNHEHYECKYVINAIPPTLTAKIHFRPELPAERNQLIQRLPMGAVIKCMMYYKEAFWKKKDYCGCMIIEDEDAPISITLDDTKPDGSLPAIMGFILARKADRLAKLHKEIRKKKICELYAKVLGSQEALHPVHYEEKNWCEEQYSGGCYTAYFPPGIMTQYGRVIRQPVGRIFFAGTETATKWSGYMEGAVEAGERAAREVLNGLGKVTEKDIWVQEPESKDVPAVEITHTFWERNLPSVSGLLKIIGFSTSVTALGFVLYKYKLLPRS
Put plainly: metabolic pathway.

For data set [2], the target named is dopamine reuptake (DA) (Homo sapiens, UniProt Q01959). Put plainly: dopamine reuptake inhibition. In kind it is biochemical. Particulars: fraction of the potency towards NE reuptake.
Chain of dopamine reuptake (DA) (Q01959 whole entry): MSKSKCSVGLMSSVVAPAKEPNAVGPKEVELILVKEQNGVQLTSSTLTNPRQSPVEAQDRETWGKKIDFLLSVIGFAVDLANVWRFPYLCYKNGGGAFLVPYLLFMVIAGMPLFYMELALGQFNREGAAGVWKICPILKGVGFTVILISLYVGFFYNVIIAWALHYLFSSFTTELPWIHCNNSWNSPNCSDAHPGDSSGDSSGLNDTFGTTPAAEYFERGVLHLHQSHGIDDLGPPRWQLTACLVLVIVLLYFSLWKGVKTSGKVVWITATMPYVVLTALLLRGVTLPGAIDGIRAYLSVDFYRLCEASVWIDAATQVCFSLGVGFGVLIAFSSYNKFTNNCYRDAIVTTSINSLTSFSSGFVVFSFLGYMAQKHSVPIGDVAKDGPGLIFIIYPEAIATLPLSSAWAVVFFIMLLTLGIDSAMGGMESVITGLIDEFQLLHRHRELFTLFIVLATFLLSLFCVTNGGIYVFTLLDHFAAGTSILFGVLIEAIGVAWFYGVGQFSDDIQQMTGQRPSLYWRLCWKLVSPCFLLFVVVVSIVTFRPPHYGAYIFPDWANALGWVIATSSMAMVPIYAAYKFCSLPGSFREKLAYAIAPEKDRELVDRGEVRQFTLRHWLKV
Data set [3] concerns the target norepinephrine reuptake (NE) (Homo sapiens, UniProt P23975). Description: norepinephrine reuptake inhibition. In kind it is biochemical. Particulars: unbalanced triple reuptake inhibitor; compared with DA and 5-HT reuptake.
Data set [4] deals with serotonin reuptake (5-HT) (Homo sapiens, UniProt P31645). Put plainly: serotonin reuptake inhibition. In kind it is biochemical. The following applies: fraction of the potency towards NE reuptake.
Chain of serotonin reuptake (5-HT) (P31645 whole entry): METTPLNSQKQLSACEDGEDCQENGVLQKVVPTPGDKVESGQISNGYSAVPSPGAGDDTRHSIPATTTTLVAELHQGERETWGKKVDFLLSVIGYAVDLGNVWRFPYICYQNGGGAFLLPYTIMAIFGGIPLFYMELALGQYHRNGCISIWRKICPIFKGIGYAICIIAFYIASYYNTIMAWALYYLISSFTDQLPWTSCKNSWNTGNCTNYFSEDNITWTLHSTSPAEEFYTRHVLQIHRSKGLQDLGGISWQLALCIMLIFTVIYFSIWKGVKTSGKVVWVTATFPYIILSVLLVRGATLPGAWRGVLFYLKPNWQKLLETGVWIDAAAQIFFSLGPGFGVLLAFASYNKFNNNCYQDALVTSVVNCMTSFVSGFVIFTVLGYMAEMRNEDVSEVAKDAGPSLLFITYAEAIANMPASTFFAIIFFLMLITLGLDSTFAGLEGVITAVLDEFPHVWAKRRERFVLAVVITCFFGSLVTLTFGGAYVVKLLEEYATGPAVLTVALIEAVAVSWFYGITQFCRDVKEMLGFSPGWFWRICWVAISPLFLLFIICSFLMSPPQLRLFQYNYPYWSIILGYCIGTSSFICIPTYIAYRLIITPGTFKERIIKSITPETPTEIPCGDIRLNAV
Data set [5] has as its system individuals with FXS. The following applies: reported trials; failures due to aggravation of irritable, moody/perseverative and aggressive behaviors; cited from earlier work.

Chain of norepinephrine reuptake (NE) (P23975 whole entry): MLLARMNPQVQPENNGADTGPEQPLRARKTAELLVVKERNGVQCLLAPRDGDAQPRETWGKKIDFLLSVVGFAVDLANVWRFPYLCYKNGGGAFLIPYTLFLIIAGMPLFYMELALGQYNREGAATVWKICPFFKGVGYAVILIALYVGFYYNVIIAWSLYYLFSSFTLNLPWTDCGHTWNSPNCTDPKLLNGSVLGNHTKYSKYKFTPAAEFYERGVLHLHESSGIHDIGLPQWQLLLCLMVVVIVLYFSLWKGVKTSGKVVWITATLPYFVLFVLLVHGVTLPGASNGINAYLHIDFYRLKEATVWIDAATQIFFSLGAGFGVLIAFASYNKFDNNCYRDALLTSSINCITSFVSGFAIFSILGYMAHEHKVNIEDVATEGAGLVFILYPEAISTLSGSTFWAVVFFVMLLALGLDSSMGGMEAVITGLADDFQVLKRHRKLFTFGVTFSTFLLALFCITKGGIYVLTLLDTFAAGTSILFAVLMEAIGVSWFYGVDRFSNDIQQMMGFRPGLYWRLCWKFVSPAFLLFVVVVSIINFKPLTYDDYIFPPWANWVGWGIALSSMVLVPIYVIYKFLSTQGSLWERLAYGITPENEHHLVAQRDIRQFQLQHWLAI

Take `c1ccc2cc([C@]34CNC[C@H]3C4)ccc2c1` [(1R,5S)-1-(naphthalen-2-yl)-3-azabicyclo[3.1.0]hexane]: in data set [1], the “primary route of metabolism” value is reported as “primarily metabolized by monoamine oxidase A (MAO A)”. Also, the “potency towards dopamine reuptake relative to norepinephrine reuptake” value in data set [2] was “one-sixth”. For the same molecule, the “relative potency towards norepinephrine reuptake” value in data set [3] is “most potency”. In addition, the “potency towards serotonin reuptake relative to norepinephrine reuptake” value in data set [4] is reported as “one-fourteenth”.

For `O=C1CCc2ccc(OCCCCN3CCN(c4cccc(Cl)c4Cl)CC3)cc2N1` [Aripiprazole], in data set [5], the “outcome of treatment in individuals with FXS” value is on record as “some individuals with FXS failed treatment”.

Turning to `CNCC[C@@H](Oc1ccccc1C)c1ccccc1` [atomoxetine], the “outcome of treatment in individuals with FXS” value in data set [5] is on record as “unsuccessful”.
